US20240270809A1, “ORAL GLP RECEPTOR AGONISTS” (priority 2020, published 2024)
Positions of bridges follow the written chain, without caps; N, C: chain ends. Non-standard residues stand in square brackets, D forms with d. Residues, ends and D or L forms follow the SMILES beside them. *: point of attachment. Malonyl(2,2-Me2,histaminyl) = CC(C)(C(=O)NCCc1cnc[nH]1)C(=O)*; Ala(1H-tetrazol-5-yl) = N[C@@H](Cc1nnn[nH]1)C(=O)O; αMePhe(2-F) = C[C@](N)(Cc1ccccc1F)C(=O)O; Nle = CCCC[C@H](N)C(=O)O; Aib = CC(C)(N)C(=O)O

How the values were obtained:
human GLP2 receptor = target: T1, human GLP2 receptor (Homo sapiens, UniProt O95838); assay: cAMP accumulation assay, functional agonism of human GLP2 receptor; type: cell-based; conditions: HEK cells infected with human GLP2 receptor BacMam virus, HTRF cAMP; for Emax: HEK293, read-out: Human GLP-2R agonist cAMP Emax; for EC50: read-out: Human GLP-2R agonist cAMP pEC50 (converted)
T1 construct: expressed in transfected cells; host or cells: HEK cells, BacMam virus transduction
T1 sequence (O95838 1-553): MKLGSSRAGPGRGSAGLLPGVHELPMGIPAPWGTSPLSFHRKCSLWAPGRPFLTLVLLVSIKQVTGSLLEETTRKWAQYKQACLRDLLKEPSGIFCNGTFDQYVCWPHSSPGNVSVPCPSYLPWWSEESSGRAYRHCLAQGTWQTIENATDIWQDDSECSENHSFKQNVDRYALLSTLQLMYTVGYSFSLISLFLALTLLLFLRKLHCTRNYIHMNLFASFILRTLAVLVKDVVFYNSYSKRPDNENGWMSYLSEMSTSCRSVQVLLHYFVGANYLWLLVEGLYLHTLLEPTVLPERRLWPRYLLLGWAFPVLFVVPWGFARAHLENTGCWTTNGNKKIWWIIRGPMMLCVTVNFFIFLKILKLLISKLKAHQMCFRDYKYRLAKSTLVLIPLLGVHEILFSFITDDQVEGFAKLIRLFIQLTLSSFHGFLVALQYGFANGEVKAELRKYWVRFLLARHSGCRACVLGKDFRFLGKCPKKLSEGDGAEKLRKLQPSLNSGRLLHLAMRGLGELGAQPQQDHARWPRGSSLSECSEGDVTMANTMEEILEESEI
How it was run: (§1)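 HTRF cAMP read-out: HEK cells expressing GLP1 or GLP2 receptor via 24 h BacMam infection, frozen before use; agonist exposure 45 min, 37° C, HBSS + 0.5 mM IBMX; stopped with detection reagents in lysis buffer.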

mouse GLP2 receptor = target: T2, mouse GLP2 receptor (Mus musculus, UniProt Q5IXF8); assay: cAMP accumulation assay, functional agonism of mouse GLP2 receptor; type: cell-based; conditions: HEK cells transiently transfected with mouse GLP2 receptor, HTRF cAMP; for Emax: HEK293, read-out: Mouse GLP-2R agonist cAMP Emax; for EC50: read-out: Mouse GLP-2R agonist cAMP pEC50 (converted)
T2 construct: expressed in transfected cells; host or cells: HEK cells, transient transfection with GeneJuice
T2 sequence (Q5IXF8 1-512): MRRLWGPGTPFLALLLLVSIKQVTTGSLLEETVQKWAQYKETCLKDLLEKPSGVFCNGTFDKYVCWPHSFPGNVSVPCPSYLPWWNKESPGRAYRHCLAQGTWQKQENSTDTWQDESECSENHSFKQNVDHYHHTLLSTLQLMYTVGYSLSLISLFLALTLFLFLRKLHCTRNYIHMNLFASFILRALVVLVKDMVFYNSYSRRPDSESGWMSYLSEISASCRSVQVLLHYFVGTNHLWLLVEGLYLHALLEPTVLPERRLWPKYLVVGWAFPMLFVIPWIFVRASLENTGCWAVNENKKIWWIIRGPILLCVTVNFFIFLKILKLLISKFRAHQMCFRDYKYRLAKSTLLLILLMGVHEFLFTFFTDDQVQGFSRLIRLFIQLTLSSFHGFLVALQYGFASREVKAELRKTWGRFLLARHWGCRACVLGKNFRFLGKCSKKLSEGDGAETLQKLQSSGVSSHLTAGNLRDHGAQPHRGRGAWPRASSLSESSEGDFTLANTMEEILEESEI
How it was run: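 pEC50 values come from four-parameter fits of HTRF cAMP signal, read after lysis and 1 h RT incubation. Compounds were incubated 45 min at 37 °C with previously frozen, transiently transfected HEK cells (8000/well) in HBSS containing 0.5 mM IBMX.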

[1] = Stability of peptides in Fasted-State Simulated Intestinal Fluid (FaSSIF); type: in vitro ADME; conditions: FaSSIF with 10 mg/ml pancreatin, 37° C.; for remaining at 0.5 h: t=30 mins, pH 6.5, 10 mg/ml pancreatin
human GLP1 receptor = target: T3, human GLP1 receptor (Homo sapiens, UniProt P43220); assay: cAMP accumulation assay, functional agonism of human GLP1 receptor; type: cell-based; conditions: HEK cells infected with human GLP1 receptor BacMam virus, HTRF cAMP; for Emax: HEK293, read-out: Human GLP-1R agonist cAMP Emax; for EC50: read-out: Human GLP-1R agonist cAMP pEC50 (converted)
T3 construct: expressed in transfected cells; host or cells: HEK cells, BacMam virus transduction
T3 sequence (P43220 24-463): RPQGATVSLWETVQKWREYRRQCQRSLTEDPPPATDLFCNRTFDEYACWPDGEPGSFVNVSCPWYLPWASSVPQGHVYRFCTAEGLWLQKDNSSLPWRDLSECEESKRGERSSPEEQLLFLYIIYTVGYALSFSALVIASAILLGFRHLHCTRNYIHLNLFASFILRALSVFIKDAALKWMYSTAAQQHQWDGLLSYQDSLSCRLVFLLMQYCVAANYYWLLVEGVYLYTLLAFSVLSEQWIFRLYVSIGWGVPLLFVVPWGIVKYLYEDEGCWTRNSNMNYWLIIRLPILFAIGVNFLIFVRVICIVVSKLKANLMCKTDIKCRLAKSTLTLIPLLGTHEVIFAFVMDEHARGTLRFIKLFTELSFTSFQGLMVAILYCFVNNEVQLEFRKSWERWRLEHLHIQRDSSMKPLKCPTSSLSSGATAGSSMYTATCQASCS
How it was run: as §1

mouse GLP1 receptor = target: T4, mouse GLP1 receptor (Mus musculus, UniProt O35659); assay: cAMP accumulation assay, functional agonism of mouse GLP1 receptor; type: cell-based; conditions: HEK cells transiently transfected with mouse GLP1 receptor, HTRF cAMP
T4 construct: expressed in transfected cells; host or cells: HEK cells, transient transfection with GeneJuice
T4 sequence (O35659 22-463): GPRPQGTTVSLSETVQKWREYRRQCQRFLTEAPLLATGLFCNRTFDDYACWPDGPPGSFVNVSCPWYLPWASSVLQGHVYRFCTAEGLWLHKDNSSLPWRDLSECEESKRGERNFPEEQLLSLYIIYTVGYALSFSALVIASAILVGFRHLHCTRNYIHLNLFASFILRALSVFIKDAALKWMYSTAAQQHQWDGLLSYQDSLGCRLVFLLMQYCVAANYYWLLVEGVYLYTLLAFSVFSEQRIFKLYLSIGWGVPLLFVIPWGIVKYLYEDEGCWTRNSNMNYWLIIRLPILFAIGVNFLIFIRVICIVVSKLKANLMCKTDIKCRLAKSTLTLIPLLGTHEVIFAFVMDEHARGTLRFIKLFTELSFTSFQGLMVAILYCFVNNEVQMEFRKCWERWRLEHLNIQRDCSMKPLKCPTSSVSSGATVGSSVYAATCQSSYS

Emax (human GLP2 receptor) [%]	EC50 (human GLP2 receptor) [nM]	Emax (mouse GLP2 receptor) [%]	EC50 (mouse GLP2 receptor) [nM]	remaining at 0.5 h [1] [%]	Emax (human GLP1 receptor) [%]	EC50 (human GLP1 receptor) [nM]	Emax (mouse GLP1 receptor; HEK293, read-out: Mouse GLP-1R agonist cAMP Emax) [%]	EC50 (mouse GLP1 receptor; read-out: Mouse GLP-1R agonist cAMP pEC50 (converted)) [nM]	remaining at 0.25 h ([1]; FaSSIF pH 6.5 with 10 mg/ml pancreatin, t = 15 mins) [%]	SMILES
103	0.01	101	0.794	12.2	95.4	0.251				CCCC[C@@H]1NC(=O)[C@H](CCC(=O)O)NC(=O)[C@@H](NC(=O)[C@H](CO)NC(=O)[C@](C)(Cc2ccccc2F)NC(=O)[C@H](CO)NC(=O)[C@@H](C)NC(=O)[C@H](CC(=O)O)NC(=O)C(C)(C)NC(=O)[C@@H](N)Cc2c[nH]cn2)CCCCNC(=O)C[C@@H](C(=O)N[C@H](C(=O)N[C@@H](CC(C)C)C(=O)N[C@@H](CC(=O)O)C(=O)N[C@H]2CCC(=O)NCCCC[C@@H](C(=O)N[C@@H](CC(=O)O)C(=O)N[C@@H](Cc3ccccc3)C(=O)N[C@H](C(=O)N[C@@H](CC(N)=O)C(=O)N[C@@H](Cc3c[nH]c4ccccc34)C(=O)N[C@@H](CC(C)C)C(=O)N[C@H](C(=O)N[C@@H](CCC(N)=O)C(=O)N[C@H]3CCC(=O)NCCCC[C@@H](C(N)=O)NC(=O)[C@H]([C@@H](C)O)NC(=O)[C@H]([C@@H](C)CC)NC(=O)[C@H](CCCCN)NC3=O)[C@@H](C)CC)[C@@H](C)CC)NC(=O)[C@H](C)NC(=O)[C@H](C)NC(=O)[C@H](CCCCN)NC2=O)[C@@H](C)CC)NC(=O)[C@@H](Cc2ccccc2)NC1=O [Example 19] (H-H[Aib]D[dA]S[αMePhe(2-F)]SKE[Nle][dF]DILDEKAAKDFINWLIQEKITK-NH2; lactam 8-12, 16-20, 29-33 (inferred); C-terminus assumed)
104	0.00794	94.5	1.58	6.8	92.7	0.398				CCCC[C@@H]1NC(=O)[C@H](CCC(=O)O)NC(=O)[C@@H](NC(=O)[C@H](CO)NC(=O)[C@H](Cc2ccccc2)NC(=O)[C@H](CO)NC(=O)CNC(=O)[C@H](Cc2nn[nH]n2)NC(=O)C(C)(C)C(=O)NCCc2c[nH]cn2)CCCCNC(=O)C[C@@H](C(=O)N[C@H](C(=O)N[C@@H](CC(C)C)C(=O)N[C@@H](CC(=O)O)C(=O)N[C@H]2CCC(=O)NCCCC[C@@H](C(=O)N[C@@H](CC(=O)O)C(=O)N[C@@H](Cc3ccccc3)C(=O)N[C@H](C(=O)N[C@@H](CC(N)=O)C(=O)N[C@@H](Cc3c[nH]c4ccccc34)C(=O)N[C@@H](CC(C)C)C(=O)N[C@H](C(=O)N[C@@H](CCC(N)=O)C(=O)N[C@H]3CCC(=O)NCCCC[C@@H](C(N)=O)NC(=O)[C@H]([C@@H](C)O)NC(=O)[C@H]([C@@H](C)CC)NC(=O)[C@H](CCCCN)NC3=O)[C@@H](C)CC)[C@@H](C)CC)NC(=O)[C@H](C)NC(=O)[C@H](C)NC(=O)[C@H](CCCCN)NC2=O)[C@@H](C)CC)NC(=O)[C@@H](Cc2ccccc2)NC1=O [Example 22] ({Malonyl(2,2-Me2,histaminyl)}-[Ala(1H-tetrazol-5-yl)]GSFSKE[Nle][dF]DILDEKAAKDFINWLIQEKITK-NH2; lactam 6-10, 14-18, 27-31 (inferred); C-terminus assumed)
99.3	0.002	98.9	0.0126		96.5	10	94.8	10		CCCC[C@H](NC(=O)[C@H](CCC(=O)O)NC(=O)[C@H](CC(=O)O)NC(=O)[C@H](CO)NC(=O)[C@H](Cc1ccccc1)NC(=O)[C@H](CO)NC(=O)CNC(=O)[C@H](CC(=O)O)NC(=O)C(C)(C)NC(=O)[C@@H](N)Cc1c[nH]cn1)C(=O)N[C@H](Cc1ccccc1)C(=O)N[C@H](C(=O)N[C@H](C(=O)N[C@@H](CC(C)C)C(=O)N[C@@H](CC(=O)O)C(=O)N[C@H]1CC(=O)NCCCC[C@@H](C(=O)N[C@@H](CC(=O)O)C(=O)N[C@@H](Cc2ccccc2)C(=O)N[C@H](C(=O)N[C@@H](CC(N)=O)C(=O)N[C@@H](Cc2c[nH]c3ccccc23)C(=O)N[C@@H](CC(C)C)C(=O)N[C@H](C(=O)N[C@@H](CCC(N)=O)C(=O)N[C@H](C(=O)N[C@@H](CCCCN)C(=O)N[C@H](C(=O)N[C@H](C(=O)N[C@@H](CC(=O)O)C(N)=O)[C@@H](C)O)[C@@H](C)CC)[C@@H](C)O)[C@@H](C)CC)[C@@H](C)CC)NC(=O)[C@H](C)NC(=O)[C@H](C)NC(=O)[C@H](CCCCN)NC1=O)[C@@H](C)CC)[C@@H](C)O [Example 92] (H-H[Aib]DGSFSDE[Nle][dF]TILDDKAAKDFINWLIQTKITD-NH2; lactam 16-20; N-terminus and C-terminus assumed)
104	0.631				93.2	0.794			26.9	CCCC[C@@H]1NC(=O)[C@H](CCC(=O)O)NC(=O)[C@H](CC(=O)O)NC(=O)[C@@H](NC(=O)[C@H](Cc2ccccc2)NC(=O)[C@H](CO)NC(=O)CNC(=O)[C@H](CC(=O)O)NC(=O)C(C)(C)NC(=O)[C@@H](N)Cc2c[nH]cn2)CCC(=O)NCCCC[C@@H](C(=O)N[C@H](C(=O)N[C@H](C(=O)N[C@@H](CC(C)C)C(=O)N[C@@H](CC(=O)O)C(=O)N[C@@H](CC(C)C)C(=O)N[C@@H](CCCCN)C(=O)N[C@@H](C)C(=O)N[C@@H](C)C(=O)N[C@@H](CCCCN)C(=O)N[C@@H](CC(=O)O)C(=O)N[C@@H](Cc2ccccc2)C(=O)N[C@H](C(=O)N[C@@H](CC(N)=O)C(=O)N[C@@H](Cc2c[nH]c3ccccc23)C(=O)N[C@@H](CC(C)C)C(=O)N[C@H](C(=O)N[C@@H](CCC(N)=O)C(=O)N[C@H](C(=O)N[C@H]2CCC(=O)NCCCC[C@@H](C(N)=O)NC(=O)[C@H]([C@@H](C)O)NC(=O)[C@H]([C@@H](C)CC)NC2=O)[C@@H](C)O)[C@@H](C)CC)[C@@H](C)CC)[C@@H](C)CC)[C@@H](C)O)NC1=O [Example 111] (H-H[Aib]DGSFEDE[Nle]KTILDLKAAKDFINWLIQTEITK-NH2; lactam 7-11, 30-33 (inferred); C-terminus assumed)
